We go through nine compounds from patent US7786174B2, “Methods and compounds for inhibiting amyloid deposits” (Bellus Health (International) Limited, priority 1999, dated 2010).

In one assay the target is T1, Synthetic human IAPP (Homo sapiens, UniProt P10997).
T1 construct: Synthetic human IAPP (Bachem) was dissolved in 40% trifluoroethanol and freeze-dried; purchased Bachem; host or cells: chemical synthesis
T1 sequence (P10997 34-70 limits assumed): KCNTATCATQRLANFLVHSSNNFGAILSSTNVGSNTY
Briefly: Rate of amyloid fibril formation by Thioflavine T (ThT) spectroscopy. The format is biochemical. The following applies: ThT 62.5 μM; excitation 440 nm, emission 482 nm; readings from 5 min, over 4-6 h and after overnight at room temperature. On the procedure:
Determination of the Rate of Amyloid Fibril Formation by Thioflavine T Spectroscopy
Detection of ThT fluorescence can be used as a sensitive assay for amyloid fibril formation under different conditions.
Synthetic human IAPP (Bachem) was dissolved in 40% trifluoroethanol and freeze-dried into conveniently-sized aliquots. IAPP was prepared immediately before the measurements by dissolving in 40% 1,1,1,3,3,3-hexafluoro-2-propanol (HFIP) in water to maintain the peptide in alpha helical conformation and soluble. A stock solution of ThT (2.5 mM) was prepared, 7.9 mg in 10 mL Tris-HCl pH 7.0 and filtered (0.22 μm). Solutions were kept in the dark until use. Fluorescence was examined at 440 nm excitation (slit 5 nm), and emission at 482 nm (slit 10 nm) with stirring. […] The sample was stirred for 5 min. before taking a reading. Measurements were made at an initial time point (5 min. from sample preparation), at intervals over the next 4-6 h and after overnight incubation at room temperature.

Another assay addresses T2, IAPP (Homo sapiens, UniProt P10997).
T2 construct: add 10 μL of 10 mg/mL IAPP stock solution (final 100 μg peptide)
T2 sequence (P10997 34-70 limits assumed): T1 sequence (P10997 34-70 limits assumed)
Kind of assay: Circular dichroism analysis of IAPP-associated fibril formation (β-sheet conformation), co-incubation procedure. The following applies: change in ellipticity at 218 nm vs peptide-only control; molar ratio 1:10 peptide:compound; water or 10 mM phosphate buffer pH 7; relative value active / not active. The format is biochemical. On the procedure: Cell/cuvette: Hellma quartz (QS) with 1.0 mm pathlength
Wavelength interval: 250 nm-190 nm
Scanning speed: 20 nm/min
The assay, a co-incubation procedure, examines the ability of a compound or substance to inhibit the assembly of amyloid fibrils, e.g., to test for the presence of the amyloidotic β-sheet conformation in the presence of soluble IAPP. Samples are run in the presence and absence (i.e., water alone) of buffering agent, which is done to determine if competitive effects are seen with the ionic buffer (usually phosphate).
Add components used at a molar ratio of 1:10 [peptide:compound]; add 10 μL of 10 mg/mL IAPP stock solution (final 100 μg peptide) to the aqueous solution containing compound to a final volume of 400 μl. The pH of the final assay solution is measured to ensure there is no fluctuation and the spectrum is accumulated using the parameters as shown above.
Add desired amount of compound to achieve a 1:10 molar ratio in 10 mM phosphate buffer, pH 7. Add 10 μL of 10 mg/mL IAPP stock solution (final peptide 100 μg) to the phosphate buffered solution containing the compound and bring to a final volume of 400 μL. The pH of the final assay solution is measured to ensure there is no fluctuation and the spectrum is accumulated using the parameters as shown above.
In both assays, a control sample is run with each test group.
Make fresh 1 mg/mL stock solution of IAPP in 10 mM phosphate buffer, pH 7. Add desired amount of compound to achieve a 1:10 molar ratio in 10 mM phosphate buffer, pH 7. Incubate for 3 days at room temperature. Make up to final volume of 400 μL with 10 mM phosphate buffer, pH 7. The pH of the final assay solution is measured to ensure there is no fluctuation and the spectrum is accumulated using the parameters as shown above.
Plots of the spectra (control and treated) are individually assembled and the changes in ellipticity at 218 nm are examined. This minimum is directly correlated with the amount of β-sheet present in the sample.

Take `NCC(O)CS(=O)(=O)O` (stereo not drawn) [3-amino-2-hydroxy-1-propanesulfonic acid]: the “effect on IAPP-associated fibril assembly (ThT fluorescence)” value (“effect” for short) at Synthetic human IAPP is recorded as “inhibit or prevent IAPP-associated fibril assembly”. For the same compound, the outcome on IAPP was Active.

For `CN(C)CCCS(=O)(=O)O` [3-dimethylamino-1-propanesulfonic acid], the “effect” value on Synthetic human IAPP is “inhibit or prevent IAPP-associated fibril assembly”. Moreover, the outcome at IAPP was Active.

As to `N[C@@H](COP(=O)(O)O)C(=O)O` [O-phospho-L-serine], the “effect” value on Synthetic human IAPP is “inhibit or prevent IAPP-associated fibril assembly”. For the same compound, the result at IAPP was Active.

In the case of `O=C(O)C(F)(F)C(F)(F)C(F)(F)C(=O)O` [hexafluoroglutaric acid], the “effect” value on Synthetic human IAPP is reported as “inhibit or prevent IAPP-associated fibril assembly”. Moreover, at IAPP, the result was Active.

In the case of `O=S(=O)([O-])CCCN1CC=C(c2ccccc2)CC1.[Na+]` [4-phenyl-1-(3′-sulfopropyl)-1,2,3,6-tetrahydropyridine, sodium salt], the “effect” value on Synthetic human IAPP is recorded as “inhibit or prevent IAPP-associated fibril assembly”. In addition, the result on IAPP was Active.

On to `Cl.c1ccc2c(c1)CCNC2` [1,2,3,4-tetrahydroisoquinoline, HCl], for which the “effect” value at Synthetic human IAPP is on record as “inhibit or prevent IAPP-associated fibril assembly”. For the same compound, the outcome on IAPP was Active.

Turning to `O=S(=O)([O-])NC1CCCCC1.[Na+]` [cyclohexylsulfamic acid, sodium salt], the “effect” value on Synthetic human IAPP is on record as “inhibit or prevent IAPP-associated fibril assembly”. For the same compound, the outcome at IAPP was Active.

Turning to `O=S(=O)(O)CCCNCCCO` [3-(3-hydroxy-1-propyl)amino-1-propanesulfonic acid], at Synthetic human IAPP, the “effect” value is “inhibit or prevent IAPP-associated fibril assembly”. Moreover, the result at IAPP was Active.

For `COc1ccc(S(=O)(=O)[O-])c2cccnc12.[Na+]` [8-methoxyquinoline-5-sulfonic acid, sodium salt], the “effect” value at Synthetic human IAPP was “inhibit or prevent IAPP-associated fibril assembly”. The result at IAPP was Active.
